Experimental data: paper PMC10831786 (Virus Research, 2024)

Legend:
[1] = system: protein synthesis in Vero E6 cells; assay: Puromycin pulse labeling, protein synthesis in cultured Vero E6 cells; assay type: cell-based, African green monkey
Protocol: Vero E6 cells were seeded at 30,000 cells per cm^2 in 6-well plates. […] Control experiments were conducted in medium alone and medium containing cycloheximide or DMSO. After 12 min, cells were washed with 37° PBS and then allowed to recover in drug-free 2 % FBS-EMEM for 30 min. Cell pellets, collected by trypsinization and centrifugation for 5 min at 5 000 rpm at 4 °C, were re-suspended in ice-cold PBS and centrifugation was repeated. Collected cells were stored at −80 °C.
Antibodies used were anti-puromycin monoclonal (TFS; MABE34), goat anti-mouse-HRP (TFS, Invitrogen; G21040), rabbit anti-β-actin (Cell Signaling, 4967S, lot 9) and HRP-conjugated goat-anti-rabbit (Cell Signaling, 7074S, lot 27). Protein extract and immunoblotting methods were done by standard methods reported here as Supplementary Information.
Vero E6 cells were seeded at 30,000 cells per cm^2 in 6-well plates. […] Puromycin labelling protocols have been well established by other laboratories and a general review of the methods has been published^79. Control experiments were conducted in medium alone and medium containing cycloheximide or DMSO. Following incubation with puromycin for 12 min, the medium was quickly removed and cells were washed with warm PBS and then allowed to recover in drug-free 2% FBS-EMEM for 30 min. Cell pellets, collected by trypsinization and centrifugation for 5 min at 5 000 rpm at 4°C, were re-suspended in ice-cold PBS and the centrifugation was repeated. Collected cells were stored at -80°C until subjected to the protein preparation as noted below.
Defrosted cell pellets were re-suspended in 120 µl of RIPA (radio-immunoprecipitation) buffer (Sigma; R0278) containing 7 µl of protease inhibitors (Sigma; P8340). Samples were incubated on ice for 40 min with occasional gentle mixing. Cell debris was removed by a 20 min centrifugation at 16,000 g at 4°C and supernatants were stored at -80°C. Protein was measured by the Pierce^TM bicinchoninic acid (BCA) assay (Thermo Fisher Scientific [TFS], MA, USA; 23250), using bovine serum albumin as a standard, according to protocols recommended by the manufacturer.
For immunoblotting, 10 µg of protein was combined with Laemmli buffer containing 10% β-mercaptoethanol, heated at 95°C for 5 min and loaded on 4-20% Mini-PROTEAN® TGX™ precast protein gels. Samples were resolved by electrophoresis in Tris-Gly-SDS buffer and transferred to nitrocellulose membranes. Transfer was conducted in Tris-Gly buffer containing 20% methanol at 4-6 V/cm^2 for one hour. Membranes were blocked in 10 mM sodium phosphate buffer containing 150 mM NaCl (pH 7.8), 5% milk and 0.1% TWEEN20 (PBST) at room temperature for at least one hour, and then incubated overnight with primary anti-puromycin antibodies (TFS; MABE343 mouse monoclonal antibodies clone 12D10; 1:12,500) at 4°C. Membranes were washed for five minutes three times in PBST and incubated with secondary goat anti-mouse horseradish peroxidase (HRP) -conjugated antibodies (TFS, Invitrogen; G21040; 1:25,000) for 90 min. After three more rounds of washing as above, membranes were incubated with an HRP substrate (TFS; 34077) for one minute and chemoluminescence was visualized by exposing membranes to film for 1, 2, 5, 10 and 30 min.
For β-actin staining, the same membranes used for puromycin immunostaining were washed four times, 5 min each, in 20 mM Tris-buffered saline containing 500 mM sodium chloride (pH 7.5) and 0.1% TWEEN20 (TBST) and stripped by two rounds of 20 and 10 min washes at 50°C in glycine buffer (pH 2.2) containing 0.1 % SDS (W/V) and 1% TWEEN20. Membranes were then washed at room temperature with PBS (3x10 min) and PBST (2x5min). Blocking, primary (1:4,000) and secondary (1:5,000) antibody staining was conducted as above. Primary rabbit anti-β-actin antibodies were obtained from Cell Signaling (4967S, lot 9) and secondary HRP-conjugated goat-anti-rabbit antibodies were from the same company (7074S, lot 27). […]

[2] = target: protein synthesis in rabbit reticulocyte lysate; assay: Inhibition of protein synthesis in rabbit reticulocyte lysates (luciferase mRNA translation); assay type: biochemical
Protocol: The TnT® Quick Coupled Transcription/Translation System from Promega (WI, USA; L1170) was used to evaluate inhibitory effects of ipecac alkaloids and cycloheximide on protein synthesis. Assay conditions were employed as recommended by the manufacturer. Briefly, reactions (20 μl) contained 80 % TNT Quick master mix, 20 µM methionine, 40 ng/µL luciferase RNA (Promega; L4561), and test chemicals. Samples were incubated at 30 °C for 90 min and diluted 10-fold with PBS. An aliquot (2 μl) was mixed with 20 μl of luciferase assay reagent (Promega; E1500) and luminescence was measured with a Turner Designs luminometer (model TD-20/20).

HCoV-OC43 = assay: Antiviral activity against HCoV-OC43 in Vero E6 cells (RT-qPCR of N-gene); assay type: cell-based
Protocol: Vero E6 cells (∼5 × 10^4 cells/cm^2 in 24-well plates) were infected with […] at MOI of 20 genomes per cell in 2 % FBS-EMEM at 33 °C, 5 % CO2 with gently mixing for 2 h. Infection medium was removed, cells were washed with fresh medium followed by the addition of compounds at indicated concentrations in 2 % FBS-EMEM. After 72 h, 100 µL of medium was collected and stored at −80 °C for viral RNA isolation and RT-qPCR analysis as detailed below. Drugs were added to the medium prior to and after viral absorption for comparison.
HCoV-OC43 RNA was isolated from 100 µL of medium using Quick-RNA Viral Kit-DX (Zymo Research, CA, USA; R1035). The relative amount of viral genomic RNA was determined with Luna Universal One-Step RT-qPCR Kit (New England Biolabs, MA, USA; E3005). […]
RT-qPCR cycles were set for 20 min at 55 °C, 1 min at 95 °C followed by 45 cycles of 95 °C for 10 s, 48 °C for 30 s and 60 °C for 1 min. The threshold cycle (Ct) for each sample was determined using the Opticon Monitor 3 Program (BioRad). Drug effects on viral propagation were evaluated assuming that a difference of one cycle corresponds to a two-fold difference in the number of copies of viral RNA. Ct values obtained for drug-free samples were considered as 100 % viral propagation.

[3] = MTS assay, growth inhibition and toxicity in non-infected Vero E6 cells; assay type: cell-based, African green monkey; details: African green monkey, non-infected Vero E6 cells, MTS, 72 h; read-out: Fifty percent effect (CC50) in non-infected Vero E6
Protocol: Detailed methods are provided in Supplementary Information.
Vero E6 and BEC-hACE2 cells were grown to 70-80% density in their maintenance media and exposed to various concentrations of ipecac alkaloids (0.0125 – 200 µM) under standard culture conditions for 48-72 h and 24 h, respectively. Controls with varying amounts of DMSO and no DMSO were included also. Vero E6 cells were incubated with drugs in 2% FBS-EMEM, while BEC-HACE2 cells were grown and treated in complete PCS-300-03 medium with supplements. Similar treatments were also conducted using fully confluent non-growing BEC-hACE2 cells. At the end of the exposure period, MTS reagent (Promega G3580) was added at 1/5th of the medium volume and color was allowed to develop by incubation of the plates for an hour in a cell culture incubator. To stop reactions, SDS was added to a final concentration of 2% and optical density of samples was measured at 450 or 490 nm, depending on the model of spectrophotometer (PharmaciaBiotech, NJ, USA; UV spectrophotometer, model Ultrospec2000) or plate reader (Molecular Devices, CA, USA; model Filter Max F5 Multi-mode microplate reader) available at the time of experiment.

SMILES | IC50 ([1]; Chlorocebus sabaeus, Vero C1008, Vero E6 cells, 1 h exposure, puromycin labeling, read-out: 50 % inhibitory activities, protein synthesis) [µM] | IC50 ([2]; luciferase mRNA, 30 °C, 90 min) [µM] | IC50 (HCoV-OC43; Betacoronavirus 1, OC43, Vero C1008, Vero E6, drug added after viral absorption, 72 hpi, read-out: Antiviral IC50) [µM] | Selectivity index, (SI) CC50/IC50 (HCoV-OC43; HCoV-OC43, Vero E6, 72 hpi) | CC50 at 72 h [3] [µM] | Protein synthesis,% ([1]; Vero E6, 0.1 μM) [%] | Protein synthesis, puromycilation signal ([1]; Vero E6, >1 μM) | Concentration above which inhibition of puromycilation is not sustained ([1]; Vero E6 cells) [µM] | Efficiency as protein synthesis inhibitors ([1]; cultured cells, puromycin labeling) | Inhibitory effects on translation in rabbit reticulocyte lysate ([2]; concentration range 0.1 - 100 μM) | IC50, protein synthesis inhibition in rabbit reticulocyte lysate ([2]; luciferase mRNA, 30 °C, 90 min)
C[C@@H]1C[C@@H]([C@H](O)CC2CC(=O)NC(=O)C2)C(=O)[C@@H](C)C1 [CHX, Cycloheximide, reference compound] | ~0.03 | 0.031 | – | – | – | – | – | – | – | – | –
CCC1=C(C[C@@H]2NCCc3cc(OC)c(OC)cc32)C[C@@H]2c3cc(OC)c(OC)cc3CCN2C1 [DHE1, 4H-Benzo[a]quinolizine, 3-ethyl-1,6,7,11b-tetrahydro-9,10-dimethoxy-2-[[(1S)-1,2,3,4-tetrahydro-6,7-dimethoxy-1-isoquinolinyl]methyl]-, (11bR)-] | – | – | 1.03 ± 0.446 | 188 | 193 ± 63.6 | 0 | signal increase | > 1 | inefficient as protein synthesis inhibitors | no inhibitory effects | Not active
